US20210284647A1, “N-(3-(IMIDAZO[1,2-B]PYRIDAZIN-3-YLETHYNYL)-4-METHYLPHENYL)-5-PHENYL-4,5-DIHYDRO-1H-PYRAZOLE-1-CARBOXAMIDE DERIVATIVE, AND PHARMACEUTICAL COMPOSITION CONTAINING SAME AS ACTIVE INGREDIENT FOR TREATING KINASE-RELATED DISEASES” (VORONOIBIO INC., priority 2018, published 2021)
Where a name gives a salt, the structure may show the parent alone.

Experiments:
[1] = tested on: human Jurkat T cells deficient in FADD; assay: Cell protection effect under apoptosis-inducing condition (TNF-α); assay type: cell-based; conditions: 40 ng of TNF-α, 50 hours, CellTiter-Glo, read-out: I2.I Cell EC50
Procedure: The cell protection effect of the compounds according to the present invention under the condition of inducing apoptosis by TNF-α was confirmed by […]. An apoptosis inducing factor such as TNF-α was treated to induce apoptosis of human Jurkat T cells deficient in FADD, to which the example compound was treated, and the cell protection effect was confirmed through the following analysis. Jurkat T cells deficient in FADD were cultured using RPMI medium (Hyclone) containing 10% FBS. When performing the test, the cells were seeded in a 96-well plate containing a medium suitable for the cell line at the density of 10,000 cells/well, and cultured in a 37° C. 5% CO2 incubator for 24 hours. Then, each well was treated with 40 ng of TNF-α, and the compounds prepared in the above examples were each treated with a 3-fold concentration gradient with 1 μM as the highest concentration. As the solvent control, dimethyl sulfoxide (DMSO) was treated at the concentration of 0.05% (v/v), which was the same concentration as that used for the compound treatment. Then, the cells were cultured for 50 hours. To confirm the degree of viability of the cells, a mixture provided in CellTiter-Gloe Luminescent Cell Viability Assay Kit (Promega) was added to the culture medium of the cells, followed by further culture at 37° C. for 30 minutes. Then, luminescence fluorescence was measured. The degree of inhibition of apoptosis induction according to the treatment concentration of each compound was calculated based on the fluorescence of the solvent control cells not treated with the compound. At this time, the concentration of each compound inhibiting 50% was determined as EC50 (μM). EC50 of each compound was calculated using Prism (version 7.01, GraphPad) software.

human GST-RIPK1 = target: T1, human GST-RIPK1 (Homo sapiens, UniProt Q13546); assay: RIPK1 inhibitory activity (ADP-Glo kinase assay); assay type: biochemical; conditions: human GST-RIPK1 10 ng, ATP 50 uM, 25° C. for 4 hours, read-out: Enzyme IC50
T1 construct: GST; purchased signalchem
T1 sequence (Q13546 1-375 limits assumed): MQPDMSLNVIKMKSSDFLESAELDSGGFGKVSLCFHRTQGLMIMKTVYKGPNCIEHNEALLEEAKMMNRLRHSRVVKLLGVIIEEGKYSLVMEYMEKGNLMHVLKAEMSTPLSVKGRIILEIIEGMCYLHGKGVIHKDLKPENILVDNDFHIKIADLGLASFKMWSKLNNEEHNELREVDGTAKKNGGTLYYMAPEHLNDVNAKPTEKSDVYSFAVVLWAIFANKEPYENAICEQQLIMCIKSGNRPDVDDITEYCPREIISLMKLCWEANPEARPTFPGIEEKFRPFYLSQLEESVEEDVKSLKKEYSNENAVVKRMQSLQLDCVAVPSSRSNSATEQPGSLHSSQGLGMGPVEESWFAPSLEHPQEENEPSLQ
Procedure: The following experiment was performed to evaluate the inhibitory activity of the example compounds according to the present invention against RIPK1 (receptor-interacting serine/threonine protein kinase 1).
The example compound was reacted with the purified human GST-RIPK1 (1375, signalchem) enzyme to evaluate the enzyme inhibitory activity in the following manner. The composition of the reaction buffer used herein was as follows: 40 mM Tris-Hcl pH 7.4, 20 mM MgCl2, 0.5 mg/ml, BSA and 0.5 uM DTT. All the test materials were reacted in the reaction buffer. After reacting human GST-RIPK1 (1375, 10 ng), purified ATP (50 uM) and a specific substrate solution at 25° C. for 4 hours, the enzyme activity was confirmed using an in vitro ADP-Glo™ kinase assay (promega). Luminoscence was measured by reacting the enzyme activity reaction solution, ADP-Glo reaction solution, and enzyme activity detection solution at the ratio of 2:2:1. The degree of enzyme activity inhibition according to the treatment concentration of each compound was calculated based on the fluorescence of the enzyme activity of the solvent control not treated with the compound. At this time, the concentration of each compound inhibiting 50% of the enzyme activity was determined as IC50 (nM). IC50 of each compound was determined with three data sets and calculated using Prism (version 7.01, GraphPad) software.

Row | Structure (SMILES) | EC50 [1] [nM] | IC50 (human GST-RIPK1) [nM]
1 | O=C(Nc1ccc(F)c(C#Cc2cnc3cccnn23)c1)N1N=CCC1c1ccccc1 (centres unmarked) [Example 44, N-(4-fluoro-3-(imidazo[1,2-b]pyridazin-3-ylethynyl)phenyl)-5-phenyl-4,5-dihydro-1H-pyrazole-1-carboxamide 2,2,2-trifluoroacetate] | 0.37 | 18.1
2 | O=C(Nc1ccc(F)c(C#Cc2cnc3cccnn23)c1)N1N=CC[C@H]1c1ccccc1 [Example 45, (S)—N-(4-fluoro-3-(imidazo[1,2-b]pyridazin-3-ylethynyl)phenyl)-5-phenyl-4,5-dihydro-1H-pyrazole-1-carboxamide 2,2,2-trifluoroacetate] | 0.09 | 8.8
3 | O=C(Nc1ccc(F)c(C#Cc2cnc3cccnn23)c1)N1N=CC[C@@H]1c1ccccc1 [Example 46, (R)—N-(4-fluoro-3-(imidazo[1,2-b]pyridazin-3-ylethynyl)phenyl)-5-phenyl-4,5-dihydro-1H-pyrazole-1-carboxamide 2,2,2-trifluoroacetate] | 97.7 | 205
4 | O=C(Nc1cc(C#Cc2cnc3cccnn23)ccc1F)N1N=CCC1c1ccccc1 (centres unmarked) [Example 47, N-(2-fluoro-5-(imidazo[1,2-b]pyridazin-3-ylethynyl)phenyl)-5-phenyl-4,5-dihydro-1H-pyrazole-1-carboxamide 2,2,2-trifluoroacetate] | > 1000 | 50.1
5 | O=C(Nc1ccnc(C#Cc2cnc3cccnn23)c1)N1N=CCC1c1ccccc1 (centres unmarked) [Example 48, N-(2-(imidazo[1,2-b]pyridazin-3-ylethynyl)pyridin-4-yl)-5-phenyl-4,5-dihydro-1H-pyrazole-1-carboxamide 2,2,2-trifluoroacetate] | 1.4 | 3.4
6 | O=C(Nc1ccnc(C#Cc2cnc3cccnn23)c1)N1N=CC[C@H]1c1ccccc1 [Example 49, (S)—N-(2-(imidazo[1,2-b]pyridazin-3-ylethynyl)pyridin-4-yl)-5-phenyl-4,5-dihydro-1H-pyrazole-1-carboxamide 2,2,2-trifluoroacetate] | 0.3 | 1.9
7 | O=C(Nc1ccnc(C#Cc2cnc3cccnn23)c1)N1N=CC[C@@H]1c1ccccc1 [Example 50, (R)—N-(2-(imidazo[1,2-b]pyridazin-3-ylethynyl)pyridin-4-yl)-5-phenyl-4,5-dihydro-1H-pyrazole-1-carboxamide 2,2,2-trifluoroacetate] | 197 | > 1000
8 | O=C(Nc1cncc(C#Cc2cnc3cccnn23)c1)N1N=CCC1c1ccccc1 (centres unmarked) [Example 51, N-(5-(imidazo[1,2-b]pyridazin-3-ylethynyl)pyridin-3-yl)-5-phenyl-4,5-dihydro-1H-pyrazole-1-carboxamide 2,2,2--trifluoroacetate] | 1.84 | 1.22
9 | O=C(Nc1cc(C#Cc2cnc3cccnn23)ccn1)N1N=CCC1c1ccccc1 (centres unmarked) [Example 52, N-(4-(imidazo[1,2-b]pyridazin-3-ylethynyl)pyridin-2-yl)-5-phenyl-4,5-dihydro-1H-pyrazole-1-carboxamide 2,2,2-trifluoroacetate] | > 1000 | 775
10 | O=C(c1cccc(C#Cc2cnc3cccnn23)c1)N1N=CCC1c1ccccc1 (centres unmarked) [Example 53, (3-(imidazo[1,2-b]pyridazin-3-ylethynyl)phenyl)(5-phenyl-4,5-dihydro-1H-pyrazol-1-yl)methanone 2,2,2-trifluoroacetate] | 975 | 731
11 | Cc1ccc(C(=O)N2N=CCC2c2ccccc2)cc1C#Cc1cnc2cccnn12 (centres unmarked) [Example 54, (3-(imidazo[1,2-b]pyridazin-3-ylethynyl)-4-methylphenyl)(5-phenyl-4,5-dihydro-1H-pyrazol-1-yl)methanone 2,2,2-trifluoroacetate] | > 1000 | 32.6
12 | O=C(Nc1cccc(C#Cc2cnc3ccccn23)c1)N1N=CCC1c1ccccc1 (centres unmarked) [Example 55, N-(3-(imidazo[1,2-a]pyridin-3-ylethynyl)phenyl)-5-phenyl-4,5-dihydro-1H-pyrazole-1-carboxamide] | 1.6 | 13.4
13 | O=C(Nc1cccc(C#Cc2cnn3cccnc23)c1)N1N=CCC1c1ccccc1 (centres unmarked) [Example 56, 5-phenyl-N-(3-(pyrazolo[1,5-a]pyrimidin-3-ylethynyl)phenyl)-4,5-dihydro-1H--pyrazole-1-carboxamide] | 0.3 | 30.5
14 | O=C(Nc1cccc(C#Cc2cnc3cnccn23)c1)N1N=CCC1c1ccccc1 (centres unmarked) [Example 57, N-(3-(imidazo[1,2-a]pyrazin-3-ylethynyl)phenyl)-5-phenyl-4,5-dihydro-1H-pyrazole-1-carboxamide] | 0.3 | 23.8
15 | O=C(Nc1cccc(C#Cc2cnc3ncccn23)c1)N1N=CCC1c1ccccc1 (centres unmarked) [Example 58, N-(3-(imidazo[1,2-a]pyrimidin-3-ylethynyl)phenyl)-5-phenyl-4,5-dihydro-1H-pyrazole-1-carboxamide] | 3.6 | 15
16 | Nc1cccn2c(C#Cc3cccc(NC(=O)N4N=CCC4c4ccccc4)c3)cnc12 (centres unmarked) [Example 59, N-(3-((8-aminoimidazo[1,2-a]pyridin-3-yl)ethynyl)phenyl)-5-phenyl-4,5-dihydro-1H-pyrazole-1-carboxamide hydrochloride] | 17.6 | 127
17 | CC(=O)Nc1cccn2c(C#Cc3cccc(NC(=O)N4N=CCC4c4ccccc4)c3)cnc12 (centres unmarked) [Example 60, N-(3-((8-acetamidoimidazo[1,2-a]pyridin-3-yl)ethynyl)phenyl)-5-phenyl-4,5-dihydro-1H-pyrazole-1-carboxamide] | 0.4 | 64.1
18 | CNC(=O)Nc1cccn2c(C#Cc3cccc(NC(=O)N4N=CCC4c4ccccc4)c3)cnc12 (centres unmarked) [Example 61, N-(3-((8-(3-methylureido)imidazo[1,2-a]pyridin-3-yl)ethynyl)phenyl)-5-phenyl-4,5-dihydro-1H-pyrazole-1-carboxamide 2,2,2-trifluoroacetate] | 0.4 | 96.7
19 | O=C(Nc1cccn2c(C#Cc3cccc(NC(=O)N4N=CCC4c4ccccc4)c3)cnc12)C1CC1 (centres unmarked) [Example 62, N-(3-((8-(cyclopropanecarboxamido)imidazo[1,2-a]pyridin-3-yl)ethynyl)phenyl)-5-phenyl-4,5-dihydro-1H-pyrazole-1-carboxamide 2,2,2-trifluoroacetate] | 1.7 | 179
20 | O=C(Nc1cccn2c(C#Cc3cccc(NC(=O)N4N=CCC4c4ccccc4)c3)cnc12)C1CCC1 (centres unmarked) [Example 63, N-(3-((8-(cyclobutanecarboxamido)imidazo[1,2-a]pyridin-3-yl)ethynyl)phenyl)-5-phenyl-4,5-dihydro-1H-pyrazole-1-carboxamide 2,2,2-trifluoroacetate] | 0.9 | 39.6
21 | COC(=O)Nc1cccn2c(C#Cc3cccc(NC(=O)N4N=CCC4c4ccccc4)c3)cnc12 (centres unmarked) [Example 64, methyl (3-((3-(5-phenyl-4,5-dihydro-1H-pyrazole-1-carboxamido)phenyl)ethynyl)imidazo[1,2-a]pyridin-8-yl)carbamate] | 1.1 | 119
22 | CS(=O)(=O)c1ccc(Nc2cccn3c(C#Cc4cccc(NC(=O)N5N=CCC5c5ccccc5)c4)cnc23)cc1 (centres unmarked) [Example 65, N-(3-((8-((4-(methylsulfonyl)phenyl)amino)imidazo[1,2-a]pyridin-3-yl)ethynyl)phenyl)-5-phenyl-4,5-dihydro-1H-pyrazole-1-carboxamide 2,2,2-trifluoroacetate] | 0.2 | 51.4
